Results published in PubChem BioAssay AID2060490 (Molecular Pharmacology Branch, DTP, NCI, 2025).
“And” between values parts separate entries of the source, which are not always exact repeats. Equal entries are not always repeated.

Tested on: 885512-296-R-J2-PDC complex spheroid viability
Experiment: Anticancer human tumor 885512-296-R-J2-PDC patient-derived breast carcinoma cell line growth inhibition [GQUAD]
Conditions: for viability, T/C: stronger effect = lower value
Source text: DNA G-quadruplex Stabilizer Agents in Combinations in Complex Spheroids
A high-throughput screen of multi-cell type tumor spheroids was designed to identify active combinations of DNA G-quadruplex stabilizer agents and targeted small molecules. Complex spheroids include a stromal component modeled by human endothelial cells (HUVEC) and fibroblasts modeled by human mesenchymal stem cells (MSCs). The concentration ranges selected for each drug and investigational agent were based upon clinically achievable concentrations if the clinical Cmax of the agent was known.
Compounds. The drugs and investigational agents: pidnarulex (CX-5461; NSC782164), APTO-253 (NSC789042), BRACO-19 (NSC847499), peposertib (NSC802822), ceralasertib (NSC780249), elimusertib (NSC800525), camonsertib (NSC841442), AZD-1390 (NSC803789), olaparib (NSC753686), talazoparib (NSC767125), ART-558 (NSC835418), sotorasib (NSC818433), MRTX-1133 (NSC836407), SN-38 (NSC673596), topotecan (NSC609699), etoposide (NSC141540), doxorubicin (NSC123127), gemcitabine (NSC613327), 5-fluorouracil (NSC19893), paclitaxel (NSC125973), vemurafenib (NSC761431), panobinostat (NSC761190), R-306465 (JNJ-16241199; NSC773264), adavosertib (NSC754352), TP-3654 (NSC805149), carboplatin (NSC241240), KSQ-4279 (NSC840948), and staurosporine (NSC755774) were obtained from the National Cancer Institute (NCI) Developmental Therapeutics Program Chemical Repository (34). The FDA-approved anticancer drug set is available from the NCI Developmental Therapeutics Program. […] The stock solutions were prepared in dimethyl sulfoxide (DMSO, Sigma-Aldrich, St. Louis, MO, cat. D2650) at 800-fold the tested concentration and stored at -70 degrees C prior to their use. All drugs and investigational agents were tested over a range starting from a high concentration at or near the clinical Cmax and decreasing in half-log increments. If the clinical Cmax for an agent had not been determined, the highest concentration tested was 10 microM.
2.3 Cell Culture. All cells were maintained in an incubator at 37 degrees C and 5% CO2 with 95% humidity. The PDC lines were cultured according to standard operating procedures established by the NCI PDMR. All PDCs were thawed and cultured in Matrigel-coated flasks prepared with a working solution of 1X Ham's F-12 nutrient mix, without supplementation (Invitrogen, cat. 11765054), 100 U/mL penicillin-streptomycin (Invitrogen, cat. 15140122), and 2.5% Matrigel (Corning Inc., cat. 354248) for the first three passages. The 857933-349-R-J2-PDC line was cultured in 6C/Colon 1B media, which includes advanced DMEM/F-12 (Thermo Fisher Scientific, cat. 12634028), 10 mM HEPES (Thermo Fisher Scientific, cat. 15630080), 1X GlutaMAX supplement (Thermo Fisher Scientific, cat. 35050061), 0.1 mg/mL primocin (InvivoGen, cat. ant-pm-2), 10% defined fetal bovine serum, heat inactivated (HyClone Laboratories Inc., cat. SH30070.03HI), 50% L-WRN conditioned media (ATCC, cat. CRL-3276), 1.25 mM N-Acetyl-L-cysteine (Sigma-Aldrich, cat. A9165), 10 mM nicotinamide (Sigma-Aldrich, cat. N0636), 1X B-27 supplement (Thermo Fisher Scientific, cat. 17504044), 1X N-2 supplement (Thermo Fisher Scientific, cat. 17502048), 10 microM Y-27632 dihydrochloride (Tocris Bioscience, cat. 1254), and 50 ng/mL human EGF recombinant protein (Thermo Fisher Scientific, cat. PHG0311). The 485176-168-R4-J1-PDC line was cultured in Panc media, which includes all 6C/Colon 1B media components plus 100 ng/mL human FGF-10 (Thermo Fisher Scientific, cat. 100-26), 500 nM SB-431542 (Selleckchem, cat. S1067), and gastrin (Tocris, cat. 3006).
[…]
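Also: spheroids exposed to the compounds for one week.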
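For viability, T/C in this document: percent of tumor spheroid viability relative to DMSO vehicle control wells.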

## COc1ccc([C@@H](O)c2cc(-c3ncnc4cc(N5CCOCC5)ccc34)c(F)cc2Cl)nn1
Compound 0.0316 µM
  viability, T/C: 110% and 101% and 96%
Compound 0.1 µM
  viability, T/C: 103% and 106% and 92.4%
Compound 0.316 µM
  viability, T/C: 101% and 89.6% and 92.7%
Compound 1 µM
  viability, T/C: 97.4% and 79.5% and 91.5%
Compound 3.16 µM
  viability, T/C: 79.2% and 89.1% and 88.5%
Compound 10 µM
  viability, T/C: 64.3% and 53.6% and 58.4%
Curve of compound
  IC50: > 10 µM

## Cc1[nH]c2ccc(F)cc2c1-c1nc2c3cccnc3c3ncccc3c2[nH]1
Compound 0.0316 µM
  viability, T/C: 99.9% [middle of 12 runs]
Compound 0.1 µM
  viability, T/C: 101% [middle of 12 runs]
Compound 0.316 µM
  viability, T/C: 97.9% [middle of 12 runs]
Compound 1 µM
  viability, T/C: 76.9% [middle of 12 runs]
Compound 10 µM
  viability, T/C: 3.15% [middle of 12 runs]
Compound alone, run of 04/16/2024
  IC50: 1.75 µM [middle of 8 runs]
Compound alone, run of 04/22/2024
  IC50: 1.54 µM [middle of 4 runs]

## COc1cccc2c1C(=O)c1c(O)c3c(c(O)c1C2=O)CC(O)(C(=O)CO)CC3OC1CC(N)C(O)C(C)O1 (stereo unspecified)
Compound 0.0316 µM
  viability, T/C: 87.2% and 85.7% and 88.6%
Compound 0.1 µM
  viability, T/C: 44.6% and 31.4% and 27.5%
Compound 0.316 µM
  viability, T/C: 23.1% and 20.1% and 23.4%
Compound 1 µM
  viability, T/C: 5.91% and 6.03% and 8.79%
Compound 3.16 µM
  viability, T/C: 0.33% and 0.51% and 0.46%
Compound 10 µM
  viability, T/C: 2.28% and 1.5% and 4.09%
Curve of compound
  IC50: 0.0888 µM and 0.0709 µM and 0.07 µM

## COc1cc(C2c3cc4c(cc3C(OC3OC5COC(C)OC5C(O)C3O)C3COC(=O)C23)OCO4)cc(OC)c1O (stereo unspecified)
Compound 0.0316 µM
  viability, T/C: 100% and 98.3% and 90.5%
Compound 0.1 µM
  viability, T/C: 97.9% and 98.6% and 88.2%
Compound 0.316 µM
  viability, T/C: 87.8% and 77.3% and 74.2%
Compound 1 µM
  viability, T/C: 43.1% and 30.2% and 27.2%
Compound 3.16 µM
  viability, T/C: 15.4% and 11.7% and 11.3%
Compound 10 µM
  viability, T/C: 9.14% and 7.67% and 7.65%
Curve of compound
  IC50: 0.843 µM and 0.618 µM and 0.573 µM

## CC1COCCN1c1cc(C2(O)CC3CCC(C2)O3)c2cnn(-c3ccn[nH]3)c2n1 (stereo unspecified) + Cc1cnc(CNC(=O)c2c(=O)c3ccc(N4CCCN(C)CC4)nc3n3c2sc2ccccc23)cn1
Curve of first compound, second compound 0.0316 µM
  IC50: < 0.0316 µM
Curve of first compound, second compound 0.1 µM
  IC50: < 0.0316 µM
Curve of first compound, second compound 0.316 µM
  IC50: < 0.0316 µM
Curve of first compound, second compound 1 µM
  IC50: < 0.0316 µM
Curve of first compound, second compound 3.16 µM
  IC50: < 0.0316 µM
Curve of first compound, second compound 10 µM
  IC50: < 0.0316 µM
Second compound 0.0316 µM, first compound 0.0316 µM
  viability, T/C: 5.92%
Second compound 0.0316 µM, first compound 0.1 µM
  viability, T/C: 3.36%
Second compound 0.0316 µM, first compound 0.316 µM
  viability, T/C: 3.06%
Second compound 0.0316 µM, first compound 1 µM
  viability, T/C: 4.49%
Second compound 0.0316 µM, first compound 3.16 µM
  viability, T/C: 5.92%
Second compound 0.0316 µM, first compound 10 µM
  viability, T/C: 7.8%
Second compound 0.1 µM, first compound 0.0316 µM
  viability, T/C: 5.95%
Second compound 0.1 µM, first compound 0.1 µM
  viability, T/C: 3.36%
Second compound 0.1 µM, first compound 0.316 µM
  viability, T/C: 3.12%
Second compound 0.1 µM, first compound 1 µM
  viability, T/C: 4.44%
Second compound 0.1 µM, first compound 3.16 µM
  viability, T/C: 6.08%
Second compound 0.1 µM, first compound 10 µM
  viability, T/C: 7%
Second compound 0.316 µM, first compound 0.0316 µM
  viability, T/C: 4.59%
Second compound 0.316 µM, first compound 0.1 µM
  viability, T/C: 4.72%
Second compound 0.316 µM, first compound 0.316 µM
  viability, T/C: 4.92%
Second compound 0.316 µM, first compound 1 µM
  viability, T/C: 5.25%
Second compound 0.316 µM, first compound 3.16 µM
  viability, T/C: 7.22%
Second compound 0.316 µM, first compound 10 µM
  viability, T/C: 7.55%
Second compound 1 µM, first compound 0.0316 µM
  viability, T/C: 6.13%
Second compound 1 µM, first compound 0.1 µM
  viability, T/C: 4.5%
Second compound 1 µM, first compound 0.316 µM
  viability, T/C: 5.8%
Second compound 1 µM, first compound 1 µM
  viability, T/C: 6.61%
Second compound 1 µM, first compound 3.16 µM
  viability, T/C: 7.78%
Second compound 1 µM, first compound 10 µM
  viability, T/C: 6.44%
Second compound 3.16 µM, first compound 0.0316 µM
  viability, T/C: 2.58%
Second compound 3.16 µM, first compound 0.1 µM
  viability, T/C: 3.35%
Second compound 3.16 µM, first compound 0.316 µM
  viability, T/C: 4.73%
Second compound 3.16 µM, first compound 1 µM
  viability, T/C: 4.41%
Second compound 3.16 µM, first compound 3.16 µM
  viability, T/C: 2.5%
Second compound 3.16 µM, first compound 10 µM
  viability, T/C: 1.93%
Second compound 10 µM, first compound 0.0316 µM
  viability, T/C: 0.03%
Second compound 10 µM, first compound 0.1 µM
  viability, T/C: 0.09%
Second compound 10 µM, first compound 0.316 µM
  viability, T/C: 0.14%
Second compound 10 µM, first compound 1 µM
  viability, T/C: 0.07%
Second compound 10 µM, first compound 3.16 µM
  viability, T/C: 0.12%
Second compound 10 µM, first compound 10 µM
  viability, T/C: 0.12%

## COc1ncnc(C2CC2)c1-c1ncc2cnn(Cc3ccc(-c4nc(C(F)(F)F)cn4C(C)C)cc3)c2n1
Compound 0.0316 µM
  viability, T/C: 104% (2×) and 93%
Compound 0.1 µM
  viability, T/C: 101% and 86% and 90.6%
Compound 0.316 µM
  viability, T/C: 100% and 59.6% and 104%
Compound 1 µM
  viability, T/C: 94% and 35.3% and 100%
Compound 3.16 µM
  viability, T/C: 99.2% and 25.8% and 107%

## Nc1ccn(C2OC(CO)C(O)C2(F)F)c(=O)n1 (stereo unspecified)
Compound 0.0316 µM
  viability, T/C: 14.6% and 8.23% and 13.1%
Compound 0.1 µM
  viability, T/C: 4.17% and 2.77% and 2.12%
Compound 0.316 µM
  viability, T/C: 2.96% and 2.39% and 3.6%
Compound 1 µM
  viability, T/C: 3.23% and 3.33% and 3.21%
Compound 3.16 µM
  viability, T/C: 4.11% and 2.94% and 3.73%
Compound 10 µM
  viability, T/C: 3.17% and 3.4% and 3.47%
Curve of compound
  IC50: < 0.0316 µM

## CCCS(=O)(=O)Nc1ccc(F)c(C(=O)c2c[nH]c3ncc(-c4ccc(Cl)cc4)cc23)c1F
Compound 0.0316 µM
  viability, T/C: 115% (2×) and 92.5%
Compound 0.1 µM
  viability, T/C: 103% and 94.5% and 95.3%
Compound 0.316 µM
  viability, T/C: 68.9% and 106% and 108%
Compound 1 µM
  viability, T/C: 8.17% and 109% and 104%
